Counter-ions that a name gives are not always drawn. Like-named read-outs stand apart in the source and are kept apart here.
What was measured:
[1] = tested on: cell–cell fusion reaction between target cells expressing CD4/CCR5 and effector cells expressing the envelope protein of HIV-1; assay type: cell-based
[2] = rat, 10 mg/kg, po
[3] = pH 6.8; cited from earlier work
human CCR5 [4] = target: T1, human CCR5 (Homo sapiens, UniProt P51681); details: (3R,1′R)-configuration versus other stereoisomers; cited from earlier work
T1 sequence (P51681 whole entry): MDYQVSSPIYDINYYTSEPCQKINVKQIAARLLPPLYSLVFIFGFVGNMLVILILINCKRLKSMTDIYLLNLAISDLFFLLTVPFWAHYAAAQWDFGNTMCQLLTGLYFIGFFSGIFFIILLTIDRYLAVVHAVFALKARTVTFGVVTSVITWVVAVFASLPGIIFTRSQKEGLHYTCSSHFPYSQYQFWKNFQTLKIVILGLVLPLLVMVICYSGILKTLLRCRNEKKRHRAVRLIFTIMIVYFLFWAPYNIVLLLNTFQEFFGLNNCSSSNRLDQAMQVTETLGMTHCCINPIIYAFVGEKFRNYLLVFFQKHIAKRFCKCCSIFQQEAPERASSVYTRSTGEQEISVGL

CCR5/hRANTES = CCR5/hRANTES (Cavia porcellus, UniProt A0A286Y1F6); details: read-out: CCR5/hRANTES Ca assay IC50; Guinea pig
CCR5/hRANTES, sequence (A0A286Y1F6 1-353): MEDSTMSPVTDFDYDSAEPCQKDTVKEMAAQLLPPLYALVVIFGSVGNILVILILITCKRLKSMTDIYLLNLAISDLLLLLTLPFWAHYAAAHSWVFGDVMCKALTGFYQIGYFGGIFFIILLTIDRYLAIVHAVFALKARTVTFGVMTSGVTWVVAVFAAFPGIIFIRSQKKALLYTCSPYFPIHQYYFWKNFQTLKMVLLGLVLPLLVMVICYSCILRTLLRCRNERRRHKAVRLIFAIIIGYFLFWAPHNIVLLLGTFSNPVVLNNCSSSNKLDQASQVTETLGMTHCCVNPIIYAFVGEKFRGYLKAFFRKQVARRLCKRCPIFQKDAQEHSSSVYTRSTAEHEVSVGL

[5] = tested on: broad panel of receptors and transporters including the other chemokines; experiment: Broad panel of receptors and transporters including the other chemokines
[6] = up to the dosage of 100 mg/kg, po
in vivo = details: rat, po, 10 mg/kg
human CCR5 [7] = target: T1, human CCR5; assay type: cell-based
HIV-1MM (R5MDR) = details: read-out: Anti-HIV-1 activity HIV-1MM (R5MDR) IC50 ± SD; inhibition of HIV p24 antigen expression in PBMC, mean ± SD, triplicate
HIV-1Ba-L (R5) = details: inhibition of HIV p24 antigen expression in PBMC, mean ± SD, triplicate

`CCCCN1C(=O)[C@@H](C(O)C2CCC(O)CC2)NC(=O)C12CCN(Cc1ccc(Oc3ccc(C(=O)O)cc3)cc1)CC2` (stereo in doubt) [Compound 20b, 4-[4-({(3R)-1-Butyl-3-[(R)-hydroxy(4-hydroxycyclohexyl)methyl]-2,5-dioxo-1,4,9-triazaspiro[5.5]undec-9-yl}methyl)phenoxy]benzoic acid hydrochloride] showed an IC50 ([1]; read-out: Fusion assay IC50) of 0.129 µM.

In the case of `CCCCN1C(=O)C(C(C)C)NC(=O)C12CCN(Cc1ccc(Oc3ccccc3)cc1)CC2.Cl` (stereo not drawn) [Compound 1], the BA [2] is given as 1.3% and the aqueous solubility [3] is given as “less than 0.2 μg/ml”.

For `CCCCN1C(=O)C(CC2CCCCC2)NC(=O)C12CCN(Cc1ccc(Oc3ccc(C(=O)NC)cc3)cc1)CC2.Cl` (stereo not drawn) [Compound 2], the BA [2] was 1.9%.

For `CCCCN1C(=O)[C@@H]([C@H](O)C(C)C)NC(=O)C12CCN(Cc1ccc(Oc3ccccc3)cc1)CC2.Cl` [Compound 3], the “fold more potency than the other stereoisomers in the Ca assay” value (human CCR5 [4]) is listed as 4.5–12 fold.

With `CCCCN1C(=O)[C@H](CC2CCCCC2)NC(=O)C12CCN(Cc1ccc(Oc3ccc(C(=O)O)cc3)cc1)CC2.Cl` [Compound 5] the BA [2] was 34%.

For `CCCCN1C(=O)[C@@H]([C@H](O)C2CCCCC2)NC(=O)C12CCN(Cc1ccc(Oc3ccc(C(=O)O)cc3)cc1)CC2.Cl` [Compound 6a, 4-[4-({(3R)-1-Butyl-3-[(R)-cyclohexyl(hydroxy)methyl]-2,5-dioxo-1,4,9-triazaspiro[5.5]undec-9-yl}methyl)phenoxy]benzoic acid hydrochloride], the IC50 (CCR5/hRANTES) was greater than 30 µM, the AMES test result (AMES test) was “did not show any significant safety problem” and the “activity against a broad panel of receptors and transporters” value [5] was “no significant activity”. The BA [2] was 23% and the “14-day rat safety study result” value [6] was “did not show any significant safety problem”.

In the case of `CCCCN1C(=O)[C@@H]([C@H](O)C2CCCCC2)NC(=O)C12CCN(Cc1ccc(Oc3ccc(O)cc3)cc1)CC2` [Compound 8, (3R)-1-Butyl-3-[(R)-cyclohexyl(hydroxy)methyl]-9-[4-(4-hydroxyphenoxy)benzyl]-1,4,9-triazaspiro[5.5]undecane-2,5-dione hydrochloride], the IC50 ([1]; read-out: Fusion assay IC50) is reported as 0.0028 µM.

`CCCCN1C(=O)[C@@H]([C@H](O)C2CCCCC2)NC(=O)C12CCN(Cc1ccc(Oc3ccc(C(=O)NC)cc3)cc1)CC2.Cl` [Compound 10, 4-[4-({(3R)-1-Butyl-3-[(R)-cyclohexyl(hydroxy)methyl]-2,5-dioxo-1,4,9-triazaspiro[5.5]undec-9-yl}methyl)phenoxy]-N-methylbenzamide hydrochloride] gave an AUC (in vivo) of 1.3 µg·h/mL, a Cmax (in vivo) of 0.333 µg/mL and a BA [2] of 10%.

Work on `CCCCN1C(=O)[C@@H]([C@H](O)C2CCCCC2)NC(=O)C12CCN(Cc1ccc(Oc3ccc(NS(C)(=O)=O)cc3)cc1)CC2.Cl` [Compound 13, N-{4-[4-({(3R)-1-Butyl-3-[(R)-cyclohexyl (hydroxy)methyl]-2,5-dioxo-1,4,9-triazaspiro[5.5]undec-9-yl}methyl)phenoxy]phenyl}methanesulfonamide hydrochloride] yielded an AUC (in vivo) of 0.242 µg·h/mL, a Cmax (in vivo) of 0.05 µg/mL and a BA [2] of 5%.

For `CCCCN1C(=O)[C@@H]([C@H](O)C(C)C)NC(=O)C12CCN(Cc1ccc(Oc3ccc(C(=O)O)cc3)cc1)CC2.Cl` [Compound 14, 4-[4-({(3R)-1-Butyl-3-[(1R)-1-hydroxy-2-methylpropyl]-2,5-dioxo-1,4,9-triazaspiro[5.5]undec-9-yl}methyl)phenoxy]benzoic acid hydrochloride], the AUC (in vivo) was 0.15 µg·h/mL and the BA [2] was 5.9%.

`CCCCN1C(=O)[C@@H]([C@H](O)C2CCOCC2)NC(=O)C12CCN(Cc1ccc(Oc3ccc(C(=O)O)cc3)cc1)CC2` [Compound 19, 4-[4-({(3R)-1-Butyl-3-[(R)-hydroxy(tetrahydro-2H-pyran-4-yl)methyl]-2,5-dioxo-1,4,9-triazaspiro[5.5]undec-9-yl}methyl)phenoxy]benzoic acid hydrochloride] gave an IC50 ([1]; read-out: Fusion assay IC50) of 0.302 µM.

For `CCCCN1C(=O)[C@@H]([C@H](O)C2CCC(O)CC2)NC(=O)C12CCN(Cc1ccc(Oc3ccc(C(=O)O)cc3)cc1)CC2` (stereo partly drawn) [Compound 20a, 4-[4-({(3R)-1-Butyl-3-[(R)-hydroxy(4-hydroxycyclohexyl)methyl]-2,5-dioxo-1,4,9-triazaspiro[5.5]undec-9-yl}methyl)phenoxy]benzoic acid hydrochloride], the IC50 ([1]; read-out: Fusion assay IC50) was 0.537 µM.

In the case of `CNC(=O)c1ccc(Oc2ccc(CN3CCC4(CC3)C(=O)N[C@H]([C@H](O)C3CCCCC3)C(=O)N4C)cc2)cc1` [Compound 22, 4-[4-({(3R)-3-[(R)-Cyclohexyl(hydroxy)methyl]-1-methyl-2,5-dioxo-1,4,9-triazaspiro[5.5]undec-9-yl}methyl)phenoxy]-N-methylbenzamide hydrochloride], the IC50 ([1]; read-out: Fusion assay) is reported as 1.86 µM.

For `CCCN1C(=O)[C@@H]([C@H](O)C2CCCCC2)NC(=O)C12CCN(Cc1ccc(Oc3ccc(C(=O)O)cc3)cc1)CC2` [Compound 25, 4-[4-({(3R)-3-[(R)-Cyclohexyl(hydroxy)methyl]-2,5-dioxo-1-propyl-1,4,9-triazaspiro[5.5]undec-9-yl}methyl)phenoxy]benzoic acid hydrochloride], the IC50 ([1]; read-out: Fusion assay) was 0.112 µM.

In the case of `CCCN1C(=O)[C@@H]([C@H](O)C2CCCCC2)NC(=O)C12CCN(Cc1ccc(Oc3ccc(C(=O)NC)cc3)cc1)CC2.Cl` [Compound 26, 4-[4-({(3R)-3-[(R)-Cyclohexyl(hydroxy)methyl]-2,5-dioxo-1-propyl-1,4,9-triazaspiro[5.5]undec-9-yl}methyl)phenoxy]-N-methylbenzamide hydrochloride], the AUC (in vivo) is reported as 0.513 µg·h/mL, the Cmax (in vivo) is reported as 0.133 µg/mL and the BA [2] is reported as 11.2%.

`CNC(=O)c1ccc(Oc2ccc(CN3CCC4(CC3)C(=O)N[C@H]([C@H](O)C3CCCCC3)C(=O)N4CCC(C)O)cc2)cc1` (stereo partly drawn) [Compound 30, 4-(4-{[(3R)-3-[(R)-Cyclohexyl(hydroxy)methyl]-1-(3-hydroxybutyl)-2,5-dioxo-1,4,9-triazaspiro[5.5]undec-9-yl]methyl}phenoxy)-N-methylbenzamide hydrochloride] gave an IC50 ([1]; read-out: Fusion assay) of roughly 10 µM.

For `CNC(=O)c1ccc(Oc2ccc(CN3CCC4(CC3)C(=O)N[C@H]([C@H](O)C3CCCCC3)C(=O)N4CCN)cc2)cc1.Cl.Cl` [Compound 32, 4-[4-({(3R)-1-(2-Aminoethyl)-3-[(R)-cyclohexyl(hydroxy)methyl]-2,5-dioxo-1,4,9-triazaspiro[5.5]undec-9-yl}methyl)phenoxy]-N-methylbenzamide dihydrochloride], the “fold less potent antagonist activity relative to 10” value (human CCR5 [7]) was greater than 10 fold.

In the case of `CNC(=O)c1ccc(Oc2ccc(CN3CCC4(CC3)C(=O)N[C@H]([C@H](O)C3CCCCC3)C(=O)N4CCN(C)C)cc2)cc1.Cl.Cl` [Compound 33, 4-[4-({(3R)-3-[(R)-Cyclohexyl(hydroxy)methyl]-1-[2-(dimethylamino)ethyl]-2,5-dioxo-1,4,9-triazaspiro[5.5]undec-9-yl}methyl)phenoxy]-N-methylbenzamide dihydrochloride], the “fold less potent antagonist activity relative to 10” value (human CCR5 [7]) is reported as greater than 10 fold.

For SCH-351125, the IC50 (HIV-1MM (R5MDR)) was 0.003 ± 0.0005 µM, the IC50 (HIV-1Ba-L (R5); read-out: Anti-HIV-1 activity HIV-1Ba-L (R5) IC50 ± SD) was 0.004 ± 0.002 µM and the IC90 (HIV-1Ba-L (R5); read-out: Anti-HIV-1 activity HIV-1Ba-L (R5) IC90 ± SD) was 0.079 ± 0.052 µM.

— paper PMC7604827 (Bioorganic & medicinal chemistry, 2011)
